pIC50: −log10 of the molar value.
How the values were obtained:
complement C3 = complement C3 (Homo sapiens, UniProt P01024); test: complement C3 inhibitory IC50 of SHA; assay type: biochemical
[1] = Pharmacokinetics of SHA in blood and brain after i.p. injection; assay type: in vivo, Sprague-Dawley rats; details: 400 mg/kg i.p., rat
Procedure: SHA (400 mg/kg) was injected intraperitoneally (i.p.) into Sprague-Dawley rats. At fixed time intervals after injection, blood samples were collected, and perfused brain was removed and homogenized. Acidified blood and brain samples were extracted in ethyl acetate. SHA was quantitated by reverse phase HPLC at 310 nm, and compared to known amounts of standards that had been added to blood or brain tissue as shown in FIG. 4.
The time of SHA injection after the onset of ischemia or reperfusion can be systematically varied to determine other ranges in which therapeutic intervention is available using this drug.

[2] = tested on: mice subjected to middle cerebral artery occlusion; test: Middle cerebral artery (MCA) occlusion stroke model, infarct volume with SHA; assay type: in vivo, C57BL/6 mice; details: 400 mg/kg i.p. twice (at occlusion and 1.5 h later), sacrifice at 24 hours, mean±SEM, n=3
Procedure: FIG. 5 is a graph depicting the infarct volume of C57BL/6 mice subjected to middle cerebral artery occlusion and treated with saline (Control, n=3) or SHA (SHA, n=3).
SHA was tested for its ability to prevent cytotoxic damage by using the middle cerebral artery (MCA) occlusion stroke model (Longa et al., supra). Briefly, this system involves anesthetizing mice with isoflurane and then maintaining the body temperature of the mice at 36±1° C. A 6.0 monofilament nylon suture with silicone-coated tip was then advanced into the internal carotid artery about 9 mm via the external carotid artery. Immediately after the filament was secured, SHA (400 mg/kg i.p.) or vehicle (normal saline) was injected. At 1.5 hours after the first injection, a second i.p. injection was given to the animal. 2 hours later the animals were re-anesthetized and the filament was removed to allow reperfusion. Cerebral blood flow, blood pressure, blood gases, pH, and serum glucose were monitored in these studies. At 24 hours the animals were sacrificed, brains removed and 1 mm thick brain section are cut on a vibratome. The brain slices were stained with 2% triphenyltetrazolium choloride. The infarct volume was obtained as described in Swanson et al., supra with results being (mean+SEM, n=3 in each group) 62.6±34.2 mm^3 in the vehicle-treated group versus 6.1±6.0 mm^3 in the SHA-treated group.

[3] = tested on: mice subjected to middle cerebral artery occlusion; test: Intravenous injection of tPA into tPA-deficient or wild-type mice with intraluminal filament MCA occlusion; assay type: in vivo, mice (C57BL/6 or SV129)
Procedure: Wild-type and tPA-deficient male mice (on C57Black/6 and SV129 backgrounds) weighing 23-27 grams were housed in a 12 hour light/dark cycle and permitted food and water intake ad libitum. Transient ischemia/reperfusion was performed using the intravascular filament model to occlude the middle cerebral artery unilaterally for 2 or 3 hours followed by reperfusion for the remainder of the 24 hour period as described in Longa et al., Stroke 20, 84-91 (1989) and Soriano. et al. Ann. Neurol. 39, 618-624 (1996). Briefly, under isoflurane anesthesia, a 6.0 nylon filament coated with silicone was threaded into the lumen of the middle cerebral artery of mice (C57Black/6 and SVI29 backgrounds) to produce transient ischemia. After 2 or 3 hours of occlusion, the filament was gently withdrawn to allow tissue reperfusion. Body temperature was maintained at 36.5±1.0° C. […] Animals were sacrificed 24 hours after the onset of the insult as described in Huang et al. Science 265, 1883-1885 (1994) and Soriano, supra. Infarct volumes were digitally quantified on 1.5 mm thick coronal sections after correction for edema by measuring TTC staining, as described in Soriano, supra, Bederson et al., Stroke 17,472-476 (1986); Swanson et al., J. Cereb. Blood Flow Metab. 10, 290-293 (1990), Lin et al., Stroke 24, 117-121 (1993); Zhang, et al., Neurology 44, 1747-1751 (1994); and Chopp et al. Stroke 25, 869-876 (1994)). Infarct volume decreased from 116±8 mm^3 in control wild-type mice to 69±7 mm^3 in tPA-deficient mice (mean±s.e.m., n=19 mice), as shown in FIG. 1. Under these conditions, there is no thrombosis at the occluded site, so the absence of tPA would not contribute to damage via an enhanced clotting cascade.
To determine the effect of intravenous injection of tPA into tPA-deficient or wild-type mice (C57BL/6 or SV129), intravenous tPA was administered intravenously, 10% initially by bolus, followed by constant infusion over twenty to thirty minutes at 0.9-1.0 mg/kg (similar to rt-PA Stroke Study Group, N. EngL J. Med. 333, 1581-1587 (1995) and Hacke. et al. JAMA 274, 1017-1025 (1995). The formula for the carrier used to dilute tPA was obtained from the manufacturer (Genentech, San Francisco, Calif.) and was used as one of the control injections. The diluent consisted of 0.02 M arginine phosphate at pH 7.3 with 0.001% Tween. […] In wildtype, but not tPA deficient mice, ischemia induced an increase in tPA activity, as assessed by histological zymography. Briefly, wild-type or tPA deficient mice were subjected to 2 hours of focal ischemia. After 10 minutes of reperfusion, the animals were sacrificed and their brains frozen as described previously (Tsirka et al., Nature 377, 340-344 (1995)). Then, 12 μm consecutive coronal brain cryostat sections were subjected to histological zymography to visualize tPA activity with or without amiloride (1 mM, a specific urokinase [uPA] inhibitor) (Sappino et al J. Clin. Invest. 92, 679-685 (1993) and Rosenberg et al., Cereb. Blood Flow Metab. 16, 360-366 (1996)). The sections were overlaid with a milk-agarose substrate matrix containing 50 ug/ml of purified human plasminogen and 1 mg/ml amiloride. […]
Regional cerebral blood flow was also monitored by the laser Doppler flowmetry technique as described in Dimagl et al J. Cereb. […] Briefly, the initial reading of regional Cerebral Blood Flow (rCBF) was assigned a value of 100% and subsequent readings were expressed relative to this value. […]

Chain of complement C3 (P01024 23-1663, species assumed): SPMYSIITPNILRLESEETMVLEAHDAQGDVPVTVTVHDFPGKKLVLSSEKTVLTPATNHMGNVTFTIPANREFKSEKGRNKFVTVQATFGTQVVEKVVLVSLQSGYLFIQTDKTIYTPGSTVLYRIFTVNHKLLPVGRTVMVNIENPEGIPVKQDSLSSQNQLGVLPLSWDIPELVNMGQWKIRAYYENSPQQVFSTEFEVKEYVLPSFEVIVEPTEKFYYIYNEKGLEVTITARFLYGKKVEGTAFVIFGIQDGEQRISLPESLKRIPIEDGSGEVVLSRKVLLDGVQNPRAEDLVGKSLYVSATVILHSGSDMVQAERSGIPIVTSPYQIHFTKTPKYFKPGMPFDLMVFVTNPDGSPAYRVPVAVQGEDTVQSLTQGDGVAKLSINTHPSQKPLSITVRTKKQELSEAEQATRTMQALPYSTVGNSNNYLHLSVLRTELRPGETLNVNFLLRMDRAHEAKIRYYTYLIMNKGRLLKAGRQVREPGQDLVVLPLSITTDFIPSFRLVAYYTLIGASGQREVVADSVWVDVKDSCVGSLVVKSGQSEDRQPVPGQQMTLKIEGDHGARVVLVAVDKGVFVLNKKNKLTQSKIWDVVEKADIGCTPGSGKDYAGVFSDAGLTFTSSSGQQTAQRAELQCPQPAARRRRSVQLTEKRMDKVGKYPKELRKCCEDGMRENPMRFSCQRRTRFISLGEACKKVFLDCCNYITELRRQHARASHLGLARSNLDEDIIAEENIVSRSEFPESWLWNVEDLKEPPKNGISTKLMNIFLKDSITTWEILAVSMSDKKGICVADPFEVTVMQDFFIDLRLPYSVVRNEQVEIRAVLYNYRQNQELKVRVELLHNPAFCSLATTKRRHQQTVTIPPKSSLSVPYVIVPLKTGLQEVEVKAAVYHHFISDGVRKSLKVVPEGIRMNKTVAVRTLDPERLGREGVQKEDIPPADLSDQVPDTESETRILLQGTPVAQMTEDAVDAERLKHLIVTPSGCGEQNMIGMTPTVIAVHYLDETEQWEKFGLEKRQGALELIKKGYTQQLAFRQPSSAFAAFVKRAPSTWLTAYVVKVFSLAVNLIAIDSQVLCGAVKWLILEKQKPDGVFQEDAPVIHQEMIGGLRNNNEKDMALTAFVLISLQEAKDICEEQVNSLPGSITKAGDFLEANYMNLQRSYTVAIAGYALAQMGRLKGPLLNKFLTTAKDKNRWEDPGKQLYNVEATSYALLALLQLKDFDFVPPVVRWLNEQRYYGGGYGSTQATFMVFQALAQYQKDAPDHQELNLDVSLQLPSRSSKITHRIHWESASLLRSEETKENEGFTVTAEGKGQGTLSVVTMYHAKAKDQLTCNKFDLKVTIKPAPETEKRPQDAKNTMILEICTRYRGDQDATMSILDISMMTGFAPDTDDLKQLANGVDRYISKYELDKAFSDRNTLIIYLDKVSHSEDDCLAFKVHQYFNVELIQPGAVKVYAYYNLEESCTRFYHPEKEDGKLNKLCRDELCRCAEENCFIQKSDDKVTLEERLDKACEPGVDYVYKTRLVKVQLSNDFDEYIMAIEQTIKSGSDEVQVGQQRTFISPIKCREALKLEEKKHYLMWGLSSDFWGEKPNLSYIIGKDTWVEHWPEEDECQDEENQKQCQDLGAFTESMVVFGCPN

Compound | pIC50 (complement C3) | complement C3 inhibitory IC50, equivalent brain concentration (complement C3; equivalent of the IC50 expressed per g brain) [mg SHA/g brain] | ability to cross the blood-brain barrier ([1]; normal brain) | time after injection during which SHA concentration in blood and brain exceeds the complement C3 IC50 ([1]; blood and brain) [h] | time of peak concentration in blood and brain after drug administration ([1]; blood and brain) | infarct volume [2] [mm^3] | hemorrhage or other bleeding diathesis at postmortem examination ([3]; tPA 0.9-1.0 mg/kg i.v., all animals) | entry of tPA activity into the brain (histological zymography) ([3]; tPA-deficient mice, intravenous exogenous tPA) | increase in size of cerebral infarction ([3]; tPA-deficient mice, tPA 0.9-1.0 mg/kg i.v.) | effect on size of the stroke with large cerebral infarcts ([3]; wild-type mice, 3 hours of vascular occlusion, versus control animals not receiving tPA) | increase in size of cerebral infarction ([3]; wild-type mice, tPA 0.9-1.0 mg/kg i.v., 2 hour occlusion)
O=C(NO)c1ccccc1O [SHA, salicylhydroxamic acid] | 5.08 | 0.0013 | able to cross the blood-brain barrier quite effectively | 2 | about 30 minutes | 6.1±6.0 |  |  |  |  | 
tPA: serine protease tissue plasminogen activator, thrombolytic agent, commercially available from Genentech |  |  |  |  |  |  | No hemorrhage or other bleeding diathesis occurred | apparent entry of tPA activity into the brain | near doubling of the damage | did not enhance the size of the stroke | 20-35%
